System: 931267-113-T-J1-PDC KRAS spheroid with HUVEC/MSC, viability
Assay: Anticancer human tumor 931267-113-T-J1-PDC patient-derived colon adenocarcinoma cell line growth inhibition [KRAS2]
Settings: for IC50: curve of first compound; for viability, T/C: stronger effect = lower value
Summary of the method: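 Combination screen of spheroid viability in tumor-cell co-cultures with endothelial (HUVEC) and mesenchymal stem cell stroma. Each agent was tested in half-log dilutions, topping at clinical Cmax or at 10 microM without a known Cmax.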

[1] = second compound 0.1 µM, first compound 0.0316 µM
[2] = second compound 0.1 µM, first compound 0.1 µM
[3] = second compound 0.1 µM, first compound 0.316 µM
[4] = second compound 0.1 µM, first compound 1 µM
[5] = second compound 0.1 µM, first compound 3.16 µM
[6] = second compound 0.1 µM, first compound 10 µM
[7] = second compound 0.316 µM, first compound 0.0316 µM
[8] = second compound 0.316 µM, first compound 0.1 µM
[9] = second compound 0.316 µM, first compound 0.316 µM
[10] = second compound 0.316 µM, first compound 1 µM
[11] = second compound 0.316 µM, first compound 3.16 µM
[12] = second compound 0.316 µM, first compound 10 µM
[13] = second compound 1 µM, first compound 0.0316 µM
[14] = second compound 1 µM, first compound 0.1 µM
[15] = second compound 1 µM, first compound 0.316 µM
[16] = second compound 1 µM, first compound 1 µM
[17] = second compound 1 µM, first compound 3.16 µM
[18] = second compound 1 µM, first compound 10 µM
[19] = second compound 3.16 µM, first compound 0.0316 µM
[20] = second compound 3.16 µM, first compound 0.1 µM
[21] = second compound 3.16 µM, first compound 0.316 µM
[22] = second compound 3.16 µM, first compound 1 µM
[23] = second compound 3.16 µM, first compound 3.16 µM
[24] = second compound 3.16 µM, first compound 10 µM
[25] = second compound 10 µM, first compound 0.0316 µM
[26] = second compound 10 µM, first compound 0.1 µM
[27] = second compound 10 µM, first compound 0.316 µM
[28] = second compound 10 µM, first compound 1 µM
[29] = second compound 10 µM, first compound 3.16 µM
[30] = second compound 10 µM, first compound 10 µM
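Further: compound exposure lasted 7 days before the readout.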
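Wherever viability, T/C is given: 100% = DMSO vehicle control viability.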

Work on COC(=O)c1ccc2c(C(=Nc3ccc(N(C)C(=O)CN4CCN(C)CC4)cc3)c3ccccc3)c(O)[nH]c2c1 + COc1cc2nc(C)nc(NC(C)c3cc(N)cc(C(F)(F)F)c3)c2cc1OC1CCOC1 yielded an IC50 (second compound 0.1 µM) of 1410 nM, an IC50 (second compound 0.316 µM) of 962 nM and an IC50 (second compound 1 µM) of 513 nM. For the same compound, the IC50 (second compound 3.16 µM) was 637 nM, the IC50 (second compound 10 µM) was under 31.6 nM and the viability, T/C [1] was 88.1%. The viability, T/C [2] was 97.5%, the viability, T/C [3] was 69.8% and the viability, T/C [4] was 71.1%. It also gave a viability, T/C [5] of 0.65%, a viability, T/C [6] of 0.3% and a viability, T/C [7] of 77.5%. For the same compound, the viability, T/C [8] was 68.3%, the viability, T/C [9] was 55.2% and the viability, T/C [10] was 50%. For the same compound, the viability, T/C [11] was 0.3%, the viability, T/C [12] was 0.83% and the viability, T/C [13] was 73%. For the same compound, the viability, T/C [14] was 95.2%, the viability, T/C [15] was 57.6% and the viability, T/C [16] was 33.5%. It also gave a viability, T/C [17] of 0.48%, a viability, T/C [18] of 0.34% and a viability, T/C [19] of 95.6%. The viability, T/C [20] was 88.3%, the viability, T/C [21] was 78.2% and the viability, T/C [22] was 32.5%. The viability, T/C [23] was 0.32%, the viability, T/C [24] was 0.26% and the viability, T/C [25] was 7.41%. It also gave a viability, T/C [26] of 2.82%, a viability, T/C [27] of 0.58% and a viability, T/C [28] of 0.41%. It also gave a viability, T/C [29] of 0.41% and a viability, T/C [30] of 0.26%.
For Cn1ncnc1[C@H]1c2n[nH]c(=O)c3cc(F)cc(c23)N[C@@H]1c1ccc(F)cc1 + CC1OCC2(CCN(c3cnc(Sc4ccnc(N)c4Cl)c(N)n3)CC2)C1N, the IC50 (second compound 0.1 µM) was over 100 nM, the IC50 (second compound 0.316 µM) was over 100 nM and the IC50 (second compound 1 µM) was over 100 nM. The IC50 (second compound 3.16 µM) was over 100 nM, the IC50 (second compound 10 µM) was over 100 nM and the viability, T/C (second compound 0.1 µM, first compound 0.000316 µM) was 93.9%. For the same compound, the viability, T/C (second compound 0.1 µM, first compound 0.001 µM) was 97.8%, the viability, T/C (second compound 0.1 µM, first compound 0.00316 µM) was 89.2% and the viability, T/C (second compound 0.1 µM, first compound 0.01 µM) was 89.3%. For the same compound, the viability, T/C [1] was 90.3%, the viability, T/C [2] was 80.5% and the viability, T/C (second compound 0.316 µM, first compound 0.000316 µM) was 84%. The viability, T/C (second compound 0.316 µM, first compound 0.001 µM) was 91.4%, the viability, T/C (second compound 0.316 µM, first compound 0.00316 µM) was 91.2% and the viability, T/C (second compound 0.316 µM, first compound 0.01 µM) was 78.9%. For the same compound, the viability, T/C [7] was 60.8%, the viability, T/C [8] was 68.4% and the viability, T/C (second compound 1 µM, first compound 0.000316 µM) was 85.8%. The viability, T/C (second compound 1 µM, first compound 0.001 µM) was 85.3%, the viability, T/C (second compound 1 µM, first compound 0.00316 µM) was 85.4% and the viability, T/C (second compound 1 µM, first compound 0.01 µM) was 95.2%. It also gave a viability, T/C [13] of 70.3%, a viability, T/C [14] of 51.2% and a viability, T/C (second compound 3.16 µM, first compound 0.000316 µM) of 83.7%. The viability, T/C (second compound 3.16 µM, first compound 0.001 µM) was 93.5%, the viability, T/C (second compound 3.16 µM, first compound 0.00316 µM) was 84.7% and the viability, T/C (second compound 3.16 µM, first compound 0.01 µM) was 80.6%. The viability, T/C [19] was 91.4%, the viability, T/C [20] was 69.7% and the viability, T/C (second compound 10 µM, first compound 0.000316 µM) was 77.6%. The viability, T/C (second compound 10 µM, first compound 0.001 µM) was 73.5%, the viability, T/C (second compound 10 µM, first compound 0.00316 µM) was 85.3% and the viability, T/C (second compound 10 µM, first compound 0.01 µM) was 77.8%. It also gave a viability, T/C [25] of 71% and a viability, T/C [26] of 51%.
Work on CCNC(=O)CC1N=C(c2ccc(Cl)cc2)c2cc(OC)ccc2-n2c(C)nnc21 (stereo not given) + CNCc1ccccc1-c1csc(C(C)Nc2nc(C)nc3cc(OC)c(OC)cc23)c1 yielded an IC50 (second compound 0.1 µM) of 775 nM, an IC50 (second compound 0.316 µM) of 240 nM and an IC50 (second compound 1 µM) of 170 nM. It also gave an IC50 (second compound 3.16 µM) of under 31.6 nM, an IC50 (second compound 10 µM) of under 31.6 nM and a viability, T/C [1] of 96.5%. It also gave a viability, T/C [2] of 109%, a viability, T/C [3] of 63.5% and a viability, T/C [4] of 54.9%. It also gave a viability, T/C [5] of 46.4%, a viability, T/C [6] of 37.3% and a viability, T/C [7] of 75.7%. For the same compound, the viability, T/C [8] was 75.2%, the viability, T/C [9] was 42% and the viability, T/C [10] was 45.7%. The viability, T/C [11] was 30.8%, the viability, T/C [12] was 30.9% and the viability, T/C [13] was 64.4%. For the same compound, the viability, T/C [14] was 53%, the viability, T/C [15] was 43.6% and the viability, T/C [16] was 36.7%. For the same compound, the viability, T/C [17] was 31%, the viability, T/C [18] was 18.1% and the viability, T/C [19] was 0.1%. The viability, T/C [20] was 0.1%, the viability, T/C [21] was 0.08% and the viability, T/C [22] was 0.08%. For the same compound, the viability, T/C [23] was 0.07%, the viability, T/C [24] was 0.16% and the viability, T/C [25] was 0.15%. The viability, T/C [26] was 0.46%, the viability, T/C [27] was 0.12% and the viability, T/C [28] was 0.12%. The viability, T/C [29] was 0.12% and the viability, T/C [30] was 0.2%.
